For data set [1], the target named is T1, MMP-1FL (full length interstitial collagenase) (Homo sapiens, UniProt P03956).
T1 sequence (P03956 100-469): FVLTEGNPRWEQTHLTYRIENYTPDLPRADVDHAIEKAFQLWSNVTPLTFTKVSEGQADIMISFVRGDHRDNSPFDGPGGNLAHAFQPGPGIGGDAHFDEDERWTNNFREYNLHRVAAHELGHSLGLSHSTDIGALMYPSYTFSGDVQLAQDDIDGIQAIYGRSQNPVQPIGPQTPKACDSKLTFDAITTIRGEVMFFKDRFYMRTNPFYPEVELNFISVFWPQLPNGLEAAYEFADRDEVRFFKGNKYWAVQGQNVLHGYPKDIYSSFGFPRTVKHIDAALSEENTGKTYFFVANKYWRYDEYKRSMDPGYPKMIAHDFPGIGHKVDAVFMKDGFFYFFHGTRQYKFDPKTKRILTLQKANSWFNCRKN
Description: Thiopeptolide substrate hydrolysis assay, MMP-1FL. Format: biochemical. To be noted: HEPES pH 7.0, 22° C. From the text: Several representative compounds have been evaluated for their ability to inhibit various matrix metalloproteinase enzymes.

For data set [2], the target named is MMP-3CD (catalytic domain of stromelysin-1) (Homo sapiens, UniProt P08254). Description: Thiopeptolide substrate hydrolysis assay, MMP-3CD. Format: biochemical. To be noted: 50 mM MES pH 6.0. How it is done: It should be appreciated that the assay buffer used with MMP-3CD was 50 mM N-morpholinoethanesulfonate (“MES”) at pH 6.0 rather than the HEPES buffer at pH 7.0 described above.
Sequence of MMP-3CD (catalytic domain of stromelysin-1) (P08254 100-272 limits assumed): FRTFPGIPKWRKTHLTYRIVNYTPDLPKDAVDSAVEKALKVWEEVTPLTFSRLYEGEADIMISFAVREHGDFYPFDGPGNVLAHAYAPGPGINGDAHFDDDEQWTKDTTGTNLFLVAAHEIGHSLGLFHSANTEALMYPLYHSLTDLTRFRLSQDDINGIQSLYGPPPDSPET

Data set [3] addresses MMP-13CD (catalytic domain of collagenase-3) (Homo sapiens, UniProt P45452). Description: Thiopeptolide substrate hydrolysis assay, MMP-13CD. Type of data set: biochemical. To be noted: HEPES pH 7.0, 22° C.
Description: The assays measure the amount by which a test compound reduces the hydrolysis of a thiopeptolide substrate caused by a matrix metalloproteinase enzyme.
Thiopeptolide substrates show virtually no decomposition or hydrolysis in the absence of a matrix metalloproteinase enzyme. A typical thiopeptolide substrate commonly utilized for assays is Ac-Pro-Leu-Gly-thioester-Leu-Leu-Gly-OEt. A 100-μL assay mixture will contain 50 mM of N-2-hydroxyethylpiperazine-N′-2-ethanesulfonic acid (“HEPES,” pH 7.0), 10 mM CaCl2, 100 μM thiopeptolide substrate, and 1 mM 5,5′-dithio-bis-(2-nitro-benzoic acid) (DTNB). […] Assays are carried out with and without matrix metalloproteinase inhibitor compounds, and the amount of hydrolysis is compared for a determination of inhibitory activity of the test compounds.

For the molecule `O=C(OCc1cccc(F)c1)c1cccc(C(=O)OCc2cccc(F)c2)c1` [Example 11, Isophthalic acid bis-(3-fluoro-benzyl) ester], the melting point was in the range of 81 to 82 °C.
The molecule `O=C(OCc1ccc2c(c1)OCO2)c1cccc(C(=O)OCc2ccc3c(c2)OCO3)c1` [Example 14, Isophthalic acid bis-(1,3-benzodioxol-5-ylmethyl) ester] yielded a melting point of 109 to 110 °C.
Turning to “N,N′-Bis-(4-methoxy-benzyl)-isophthalamide [Example 39]”, the IC50 is over 100 µM in data set [1], over 100 µM in data set [2] and 2.74 µM in data set [3].
Consider `CCOc1ccc(C(=O)NCc2cccc(OC)c2)cc1C(=O)NCc1cccc(OC)c1` [Example 64, 4-Ethoxy-N′1,N″3-bis-(3-methoxy-benzyl)-isophthalamide], for which the IC50 in data set [1] and in data set [2] was over 100 µM throughout.
Take `COc1ccc(C(=O)OCc2ccncc2)cc1C(=O)OCc1ccncc1` [Example 5, 4-Methoxy-isophthalic acid dipyridin-4-ylmethyl ester]: the results for the IC50 in data set [1], in data set [2] and in data set [3] were over 100 µM, over 100 µM and 0.255 µM, respectively.
Consider `O=C(NCc1ccc2c(c1)OCO2)c1cccc(C(=O)NCc2ccc3c(c2)OCO3)c1` [Example 19, N,N′-Bis-1,3-benzodioxol-5-ylmethyl-isophthalamide], for which the IC50 in data set [1] was over 100 µM.
`O=C(NCc1ccc(Cl)cc1)c1cccc(C(=O)NCc2ccc(Cl)cc2)c1` [Example 10, N,N′-Bis-(4-chloro-benzyl)-isophthalamide] registered a melting point of 136 to 138 °C.
`O=C(NCc1ccc2c(c1)OCO2)c1cccc(C(=O)NCc2ccc3c(c2)OCO3)c1` [Example 28, N,N′-Bis-1,3-benzodioxol-5-ylmethyl-isophthalamide]: the IC50 in data set [1] was over 100 µM.
Take `O=C(OCc1ccc2nsnc2c1)c1cccc(C(=O)OCc2ccc3nsnc3c2)c1` [Example 3, Isophthalic acid di-(2,1,3-benzothiadiazol-5-yl)methyl ester]: the IC50 in data set [1] is over 100 µM; in data set [2], over 30 µM.
As to “4-Methoxy-N,N′-bis-(4-methoxy-benzyl)-isophthalamide [Example 24]”, the IC50 in data set [1] was over 100 µM; in data set [2], over 100 µM; in data set [3], 0.28 µM.
`COc1ccc(C(=O)OCc2ccc3nsnc3c2)cc1C(=O)OCc1ccc2nsnc2c1` [Example 69, 4-Methoxy-isophthalic acid di-2,1,3-benzothiadiazol-5-ylmethyl ester] returned an IC50 in data set [1] of 30 µM.
The molecule `O=C(NCc1cccc(Cl)c1)c1cccc(C(=O)NCc2cccc(Cl)c2)c1` [Example 18, N,N′-Bis-(3-chloro-benzyl)-isophthalamide] returned a melting point of 128 to 130 °C.
Still for that read-out and setting: as for `COc1ccc(COC(=O)c2cccc(C(=O)OCc3ccc(OC)cc3)c2)cc1` [Example 12, Isophthalic acid bis-(4-methoxy-benzyl) ester], the figure is 90 to 92 °C; as for `O=C(NCc1cccc(F)c1)c1cccc(C(=O)NCc2cccc(F)c2)c1` [Example 17, N,N′-Bis-(3-fluoro-benzyl)-isophthalamide], 138 to 140 °C; as for `COc1cccc(COC(=O)c2cccc(C(=O)OCc3cccc(OC)c3)c2)c1` [Example 13, Isophthalic acid bis-(3-methoxy-benzyl) ester], 68 to 70 °C.
Regarding `COc1ccc(CNC(=O)c2cccc(C(=O)NCc3ccc(OC)cc3)c2)cc1` [Example 16, N,N′-Bis-(4-methoxy-benzyl)-isophthalamide], the melting point fell in the range of 175 to 176 °C.
Consider `COc1cccc(CNC(=O)c2cccc(C(=O)NCc3cccc(OC)c3)c2)c1` [Example 30, N,N′-Bis-(3-methoxy-benzyl)-isophthalamide], for which the IC50 in data set [1] and in data set [2] was over 100 µM throughout.

The values are drawn from patent US7214712B2, “Isophthalic acid derivatives as matrix metalloproteinase inhibitors” (Warner-Lambert Company, priority 2001, dated 2007).
